From US7598258B2, “Quinoline derivatives and quinazoline derivatives inhibiting autophosphorylation of macrophage colony stimulating factor receptor” (Kirin Beer Kabushiki Kaisha, priority 2002, dated 2009)

Target: T1, Human KDR (Homo sapiens, UniProt P35968)
T1 construct: expressed in transfected cells; host or cells: NIH3T3 cells (mouse fibroblasts)
Test: Inhibition of KDR phosphorylation in human KDR-transfected NIH3T3 cells (ELISA)
Format: cell-based
Conditions: for Selection ratio (KDR phosphorylation IC50 / c-fms phosphorylation IC50): class 0-3; for IC50: human KDR-transfected NIH3T3 cells, VEGF 100 ng/ml, ELISA, read-out: KDR phosphorylation 50% inhibitory concentration (IC50)
Method: Human KDR-transfected NIH3T3 cells (Sawano A et al., Cell Growth & Differentiation, 7, 213-221 (1996)) were cultured in a DMEM medium containing 10% fetal calf serum (purchased from GIBCO BRL) within a 5% carbon dioxide incubator until 50 to 70% confluent. The harvested cells were seeded into wells, containing the same medium, in a collagen type 1 coat 96-well flat-bottom plate in an amount of 1.5×10^4 per well, and cultured at 37° C. overnight. The medium was replaced with a 0.1% fetal calf serum-containing DMEM medium. The test compound dissolved in dimethyl sulfoxide was added to each well, and the cultivation was continued at 37° C. for additional one hr. A human recombinant vascular endothelial growth factor (hereinafter abbreviated to “VEGF”) was added to a final concentration of 100 ng/ml, followed by stimulation of cells at 37° C. for 2 min. The medium was removed, and the cells were washed with phosphate buffered saline (pH 7.4). A solubilization buffer (50 μl) (20 mM HEPES (pH 7.4), 150 mM NaCl, 0.2% Triton X-100, 10% glycerol, 5 mM sodium orthovanadylate, 5 mM disodium ethylenediaminetetraacetate, and 2 mM Na4P2O7) was then added thereto. The mixture was shaken at 4° C. for 2 hr to prepare a cell extract.
Separately, phosphate buffered saline (50 μl, pH 7.4) containing 5 μg/ml of anti-phospho-tyrosine antibody (PY20; purchased from Transduction Laboratories) was added to a microplate for ELISA (Maxisorp; purchased from NUNC), followed by standing at 4° C. overnight to be immobilized on the wells. After washing of the plate, 300 μl of a blocking solution was added, followed by standing at room temperature for 2 hr to perform blocking. After washing, the whole cell extract was transferred and was allowed to stand at 4° C. overnight. After washing, an anti-KDR antibody (purchased from Santa Cruz Biotechnology) was allowed to react at room temperature for one hr. Further, after washing, a peroxidase-labeled anti-rabbit Ig antibody (purchased from Amersham) was allowed to react at room temperature for one hr. After washing, a chromophoric substrate for peroxidase (purchased from Sumitomo Bakelite Co., Ltd.) was added thereto to initiate a reaction. After a suitable level of color development, a reaction termination solution was added to stop the reaction, and the absorbance at 450 nm was measured with a microplate reader. The KDR phosphorylation activity for each well was determined by presuming the absorbance without the addition of the test compound and with the addition of VEGF to be 100% KDR phosphorylation activity and the absorbance without the addition of the test compound and VEGF to be 0% KDR phosphorylation activity. The concentration of the test compound was varied on several levels, the KDR phosphorylation inhibitory rate was determined for each case, and the concentration of the test compound necessary for inhibiting 50% of KDR phosphorylation (IC50) was calculated.

T1 sequence (P35968 20-1356): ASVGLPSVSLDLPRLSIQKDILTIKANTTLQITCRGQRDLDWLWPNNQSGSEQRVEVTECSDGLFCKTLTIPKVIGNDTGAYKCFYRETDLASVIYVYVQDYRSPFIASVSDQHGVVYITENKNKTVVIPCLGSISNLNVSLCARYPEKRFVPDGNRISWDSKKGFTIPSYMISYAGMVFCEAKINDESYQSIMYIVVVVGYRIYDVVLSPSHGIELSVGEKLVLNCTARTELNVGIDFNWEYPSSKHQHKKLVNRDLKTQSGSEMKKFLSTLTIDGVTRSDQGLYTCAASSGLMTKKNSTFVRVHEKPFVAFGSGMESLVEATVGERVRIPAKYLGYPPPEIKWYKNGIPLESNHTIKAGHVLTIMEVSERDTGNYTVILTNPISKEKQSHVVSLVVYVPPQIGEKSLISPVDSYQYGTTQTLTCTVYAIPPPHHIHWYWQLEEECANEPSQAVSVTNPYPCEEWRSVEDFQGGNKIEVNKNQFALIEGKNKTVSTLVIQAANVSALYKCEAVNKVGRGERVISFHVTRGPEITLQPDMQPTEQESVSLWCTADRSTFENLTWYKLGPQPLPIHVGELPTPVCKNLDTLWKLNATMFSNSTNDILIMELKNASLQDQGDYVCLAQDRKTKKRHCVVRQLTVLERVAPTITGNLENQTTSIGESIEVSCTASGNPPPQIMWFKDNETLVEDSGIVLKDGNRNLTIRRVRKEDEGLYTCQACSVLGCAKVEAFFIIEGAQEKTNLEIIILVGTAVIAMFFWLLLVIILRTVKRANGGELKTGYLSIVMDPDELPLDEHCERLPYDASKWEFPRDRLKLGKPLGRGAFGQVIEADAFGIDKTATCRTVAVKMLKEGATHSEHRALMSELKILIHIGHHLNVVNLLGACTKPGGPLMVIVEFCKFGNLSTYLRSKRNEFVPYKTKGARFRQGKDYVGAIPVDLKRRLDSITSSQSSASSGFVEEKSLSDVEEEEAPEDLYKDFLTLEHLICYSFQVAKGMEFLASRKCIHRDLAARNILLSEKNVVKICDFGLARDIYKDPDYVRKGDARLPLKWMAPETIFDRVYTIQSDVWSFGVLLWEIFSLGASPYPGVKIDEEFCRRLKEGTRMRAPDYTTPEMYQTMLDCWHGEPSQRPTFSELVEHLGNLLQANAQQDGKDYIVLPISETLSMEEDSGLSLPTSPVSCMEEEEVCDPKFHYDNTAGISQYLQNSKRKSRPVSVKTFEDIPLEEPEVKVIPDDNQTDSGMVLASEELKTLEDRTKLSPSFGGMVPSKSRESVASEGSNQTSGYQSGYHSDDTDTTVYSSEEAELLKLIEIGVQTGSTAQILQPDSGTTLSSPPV

| IC50 | SMILES | Selection ratio (KDR phosphorylation IC50 / c-fms phosphorylation IC50) | selective inhibition of c-fms rather than KDR (in words) (in vitro) |
| --- | --- | --- | --- |
| 1.9 nM | COc1cc2nccc(Oc3ccc(NC(=O)N[C@H](C)c4cccc(Br)c4)c(C(F)(F)F)c3)c2cc1OC [Example 60, N-[(1R)-1-(3-Bromophenyl)ethyl]-N′-[4-[(6,7-dimethoxy-4-quinolyl)oxy]-2-(trifluoromethyl)phenyl]urea] | 0 (KDR phosphorylation 50% inhibitory concentration [μM]/c-fms phosphorylation 50% inhibitory concentration [μM] was less than 5) | – |
| 43.3 nM | COc1cc2nccc(Oc3ccc(NC(=O)NC(C)c4nccs4)cc3F)c2cc1OC (stereo not shown) [Example 73, N-{4-[(6,7-Dimethoxy-4-quinolyl)oxy]-3-fluorophenyl}-N′-[1-(1,3-thiazol-2-yl)ethyl]urea] | 2 (when the value was 10 or more) | – |
| 315 nM | COc1cc(Oc2ccnc3cc(OC)c(OC)cc23)ccc1NC(=O)N[C@@H](C)c1ccc(F)cc1 [Example 17, N-{4-[(6,7-Dimethoxy-4-quinolyl)oxy]-2-methoxyphenyl}-N′-[(1S)-1-(4-fluorophenyl)ethyl]urea] | 3 (when the value was 50 or more) | selectively inhibit c-fms rather than KDR |
| 29.4 nM | COc1cc2nccc(Oc3ccc(NC(=O)N[C@@H](C)c4ccc(F)cc4)cc3F)c2cc1OC [Example 32, N-{4-[(6,7-Dimethoxy-4-quinolyl)oxy]-3-fluorophenyl}-N′-[(1S)-1-(4-fluorophenyl)ethyl]urea] | 1 (when the value was 5 or more) | – |
| 219 nM | COc1cc2nccc(Oc3ccc(NC(=O)NC(C)c4ncc(C)s4)cc3F)c2cc1OC (stereo not shown) [Example 102, N-{4-[(6,7-Dimethoxy-4-quinolyl)oxy]-3-fluorophenyl}-N′-[1-(5-methyl-1,3-thiazol-2-yl)ethyl]urea] | 2 (when the value was 10 or more) | – |
| 8.7 nM | COc1cc2nccc(Oc3ccc(NC(=O)NC(C)c4nc(C)cs4)c(F)c3)c2cc1OC (stereo not shown) [Example 88, N-{4-[(6,7-Dimethoxy-4-quinolyl)oxy]-2-fluorophenyl}-N′-[1-(4-methyl-1,3-thiazol-2-yl)ethyl]urea] | 0 (KDR phosphorylation 50% inhibitory concentration [μM]/c-fms phosphorylation 50% inhibitory concentration [μM] was less than 5) | – |
| 2.9 nM | COc1cc2c(Oc3ccc(NC(=O)NC(C)c4ccc(F)cc4)c(F)c3)ccnc2cc1OCCCN1CCOCC1 (stereo not shown) [Example 67, N-(2-Fluoro-4-{[6-methoxy-7-(3-morpholinopropoxy)-4-quinolyl]oxy}phenyl)-N′-[1-(4-fluorophenyl)ethyl]urea] | 0 (KDR phosphorylation 50% inhibitory concentration [μM]/c-fms phosphorylation 50% inhibitory concentration [μM] was less than 5) | – |
| 21.6 nM | COc1cc2nccc(Oc3ccc(NC(=O)N[C@H](C)c4nccs4)c(C(F)(F)F)c3)c2cc1OC [Example 85, N-[4-[(6,7-Dimethoxy-4-quinolyl)oxy]-2-(trifluoromethyl)phenyl]-N′-[(1R)-1-(1,3-thiazol-2-yl)ethyl]urea] | 0 (KDR phosphorylation 50% inhibitory concentration [μM]/c-fms phosphorylation 50% inhibitory concentration [μM] was less than 5) | – |

More lines, now with the values behind:

| SMILES | IC50 | Selection ratio (KDR phosphorylation IC50 / c-fms phosphorylation IC50) | selective inhibition of c-fms rather than KDR (in words) (in vitro) |
| --- | --- | --- | --- |
| COc1cc2nccc(Oc3ccc(NC(=O)N[C@H](C)c4cccc(Br)c4)c(C)c3C)c2cc1OC [Example 62, N-[(1R)-1-(3-Bromophenyl)ethyl]-N′-{4-[(6,7-dimethoxy-4-quinolyl)oxy]-2,3-dimethylphenyl}urea] | 2.7 nM | 0 (KDR phosphorylation 50% inhibitory concentration [μM]/c-fms phosphorylation 50% inhibitory concentration [μM] was less than 5) | – |
| COc1cc2c(Oc3ccc(NC(=O)NC(C)c4ccc(F)cc4F)c(F)c3)ccnc2cc1OCCCN1CCOCC1 (stereo not shown) [Example 69, N-[1-(2,4-Difluorophenyl)ethyl]-N′-(2-fluoro-4-{[6-methoxy-7-(3-morpholinopropoxy)-4-quinolyl]oxy}phenyl)urea] | 5.2 nM | 0 (KDR phosphorylation 50% inhibitory concentration [μM]/c-fms phosphorylation 50% inhibitory concentration [μM] was less than 5) | – |
| COc1cc2nccc(Oc3ccc(NC(=O)N[C@@H](C)c4nccs4)cc3)c2cc1OC [Example 78, N-{4-[(6,7-Dimethoxy-4-quinolyl)oxy]phenyl}-N′-[(S)-1-(1,3-thiazol-2-yl)ethyl]urea] | 53.9 nM | 2 (when the value was 10 or more) | – |
| COc1cc2nccc(Oc3ccc(NC(=O)N[C@H](C)c4nccs4)cc3OC)c2cc1OC [Example 82, N-{4-[(6,7-Dimethoxy-4-quinolyl)oxy]-3-methoxyphenyl}-N′-[(1R)-1-(1,3-thiazol-2-yl)ethyl]urea] | 650 nM | 3 (when the value was 50 or more) | – |
| COc1cc2nccc(Oc3ccc(NC(=O)N[C@@H](C)c4ccc(F)cc4)cc3OC)c2cc1OC [Example 23, N-{4-[(6,7-Dimethoxy-4-quinolyl)oxy]-3-methoxyphenyl}-N′-[(1S)-1-(4-fluorophenyl)ethyl]urea] | 600 nM | 3 (when the value was 50 or more) | – |
| COc1cc(Oc2ccnc3cc(OC)c(OC)cc23)ccc1NC(=O)NC(C)c1nc(C)c(C)s1 (stereo not shown) [Example 99, N-{4-[(6,7-Dimethoxy-4-quinolyl)oxy]-2-methoxyphenyl}-N′-[1-(4,5-dimethyl-1,3-thiazol-2-yl)ethyl]urea] | 292 nM | 2 (when the value was 10 or more) | – |
| COc1cc2nccc(Oc3ccc(NC(=O)N[C@H](C)c4cccc(Br)c4)c(F)c3)c2cc1OC [Example 63, N-[(1R)-1-(3-Bromophenyl)ethyl]-N′-{4-[(6,7-dimethoxy-4-quinolyl)oxy]-2-fluorophenyl}urea] | 2.6 nM | 0 (KDR phosphorylation 50% inhibitory concentration [μM]/c-fms phosphorylation 50% inhibitory concentration [μM] was less than 5) | – |
| COc1cc2nccc(Oc3ccc(NC(=O)NC(C)c4ccc(F)cc4)c(C(F)(F)F)c3)c2cc1OC (stereo not shown) [Example 19, N-[4-[(6,7-Dimethoxy-4-quinolyl)oxy]-2-(trifluoromethyl)phenyl]-N′-[1-(4-fluorophenyl)ethyl]urea] | 1.5 nM | 0 (KDR phosphorylation 50% inhibitory concentration [μM]/c-fms phosphorylation 50% inhibitory concentration [μM] was less than 5) | – |
| COc1cc2nccc(Oc3ccc(NC(=O)NC(C)c4ccc(F)cc4)c(C)c3C)c2cc1OC (stereo not shown) [Example 25, N-{4-[(6,7-Dimethoxy-4-quinolyl)oxy]-2,3-dimethylphenyl}-N′-[1-(4-fluorophenyl)ethyl]urea] | 3.5 nM | 0 (KDR phosphorylation 50% inhibitory concentration [μM]/c-fms phosphorylation 50% inhibitory concentration [μM] was less than 5) | – |
| COc1cc2nccc(Oc3ccc(NC(=O)NC(C)c4ccc(F)cc4)c(F)c3)c2cc1OC (stereo not shown) [Example 28, N-{4-[(6,7-Dimethoxy-4-quinolyl)oxy]-2-fluorophenyl}-N′-[1-(4-fluorophenyl)ethyl]urea] | < 1 nM | 0 (KDR phosphorylation 50% inhibitory concentration [μM]/c-fms phosphorylation 50% inhibitory concentration [μM] was less than 5) | – |
